# From ChEMBL document CHEMBL3351441, “The effect of pK(a) on pyrimidine/pyridine-derived histamine H4 ligands” (Bioorg Med Chem Lett, 2014)
# Legend:
# [1] = target: Histamine H4 receptor (Homo sapiens, UniProt Q9H3N8); assay: Displacement of [3H]histamine from human recombinant histamine H4 receptor
# [2] = Dissociation constant, pKa of the compound by Analiza PRO analyzer based method; assay type: physicochemical
# [3] = Dissociation constant, pKa of the compound by potentiometric titration; assay type: physicochemical
Ki [1] [nM],pKa [2],pKa [3],Structure (SMILES)
320,6.3,,CN[C@@H]1CCN(c2cc(N)nc(C(C)C)n2)C1
,6.4,,CN[C@@H]1CCN(c2ccnc(NC(C)C)n2)C1
,6.3,,CN[C@@H]1CCN(c2cc(N)nc(NC(C)C)n2)C1
460,6.5,,CN[C@@H]1CCN(c2ccnc(C(C)C)n2)C1
456,,5.9,CCc1cc(N2CC[C@@H](NC)C2)ncn1
,6.6,,CN[C@@H]1CCN(c2ccnc(NC(C)C)c2)C1
3.1,6.5,,CN[C@@H]1CCN(c2cc(N)nc(NC(C)C)c2)C1

# Further lines, the compound ahead of its results:
Structure (SMILES),Ki [1] [nM],pKa [2],pKa [3]
CN[C@@H]1CCN(c2cc(CC(F)(F)F)nc(N)n2)C1,11,5.4,
Nc1nc(C2CCCC2)cc(N2CCNCC2)n1,,7.9,
Nc1cc(N2CCNCC2)cc(NC2CCCC2)n1,2,6.5,
CN[C@@H]1CCN(c2cc(C(F)F)nc(N)n2)C1,> 10000,4.4,
CN[C@@H]1CCN(c2cc(CCl)nc(N)n2)C1,92,6,
CCc1cc(N2CC[C@@H](NC)C2)nc(N)n1,,6.3,7.5
Nc1cc(C2CCNCC2)cc(NC2CCCC2)n1,50,6.1,
Nc1cc(C2CCNCC2)cc(OC2CCCC2)n1,> 10000,4.7,
CN[C@@H]1CCN(c2cc(CF)nc(N)n2)C1,126,5.5,
CN[C@@H]1CCN(c2cc(CCC(F)(F)F)nc(N)n2)C1,,7.8,
CN[C@@H]1CCN(c2cc(C(F)(F)F)nc(N)n2)C1,> 10000,3.1,3.1
Nc1nc(NC2CCCC2)cc(C2CCNCC2)n1,> 1000,6.1,
Nc1nc(C2CCCC2)cc(C2CCNCC2)n1,1550,4.5,
